# Values of other authors, collected in US9464021B2, “Method of preparation of stereospecific quinone derivatives” (priority 2013, dated 2016).
# Experiments:
# [1] = liver fractions
# [2] = in vivo
Structure (SMILES),hepatic subcellular distribution [1],biological activity as vitamin K [2]
CC1=C(C/C=C(/C)CCC[C@H](C)CCC[C@H](C)CCCC(C)C)C(=O)c2ccccc2C1=O (relative stereo) [cis-phylloquinone],retained preferentially by mitochondria,little or no biological activity as vitamin K
"CC1=C(C/C=C(\C)CCC[C@H](C)CCC[C@H](C)CCCC(C)C)C(=O)c2ccccc2C1=O (single isomer, unassigned) [trans isomer, phylloquinone]",associated principally with the microsomal fraction and subfractions,full potency of the vitamin
